Experimental data as given in paper PMC12546632, “The role of cytochrome bc1 inhibitors in future tuberculosis treatment regimens” (Nature Communications, 2025).
“And” between values parts separate entries of the source, which are not always exact repeats. Equal entries are not always repeated.

System: JNJ-2901- and JNJ-4052-resistant M. tuberculosis ΔcydAB strains (QcrA/QcrB mutants)
Type: cell-based, Mycobacterium tuberculosis

SMILES: NNC(=O)c1ccncc1 [Isoniazid, isoniazid]
- MIC50 fold change from parental strain: 1 fold and 0.5 fold
